# Reference: PMC7932537, “Quantitative profiling of protease specificity” (PLoS Computational Biology, 2021)
# Columns and labels:
# MMP-2 = experiment: Substrate phage display with NGS: relative probability (RP) of P3-P1' tetramer clusters; assay type: biochemical, human; details: for avg_RP: MMP2 - no binning; for relative probability (RP) of matching tetramer: P3-P1' tetramer matching the MS detected MMP2 cleavage sequence, RP_above_4.5; for MMP2 relative probability (RP): MMP2 tetramers from unique substrates, unrounded values; for normalized RP - MMP2: normalized RP of matching tetramer
# MMP-9 = experiment: as above; assay type: biochemical, human; details: for corresponding MMP9 relative probability (RP): MMP2 tetramers from unique substrates, RP of same tetramer for MMP9; for normalized RP - MMP9: normalized RP of matching tetramer
# [1] = average relative probability (RP) of the P3-P1' tetramer, redundant tetramers have been averaged out
# [2] = RP of matching tetramer, common MMP2-9 selectome
# [3] = MMP9, RP of the P3-P1' tetramer matching the MS detected cleavage, RP above 4.7, substrate phage display with NGS
# [4] = RP of matching tetramer, common MMP2-9 selectome, RP above KL threshold
# [5] = RP of the P3-P1' tetramer cluster contained in the hexamer, 200 nM MMP-2, 2 h, 37°C, two rounds of selection
# [6] = MMP9, RP of the P3-P1' tetramer contained in the hexamer substrate (substrate phage display, NGS)
# [7] = RP of the P3-P1' tetramer, MMP2 substrate phage display/NGS, tetramers of physiologic MEROPS substrates common to MMP2 and MMP9
# [8] = RP of the P3-P1' tetramer, MMP9 substrate phage display/NGS, tetramers of physiologic MEROPS substrates common to MMP2 and MMP9
# [9] = MMP2, RP of matching P3-P1' tetramer, common set of MMP2-9 selectome, RP above KL threshold
# [10] = MMP9, RP of matching P3-P1' tetramer, common set of MMP2-9 selectome
# [11] = RP according to MMP2, P3-P1' tetramer of unique physiologic MMP2 substrates from MEROPS
# [12] = RP of matching tetramer, unique part of MMP2 selectome, RP above KL threshold
# [13] = RP of matching tetramer, unique part of MMP2 selectome
# [14] = RP according to MMP9, P3-P1' tetramer of unique physiologic MMP9 substrates from MEROPS
substance,measurement,setting,value
ARGI,avg_RP,MMP-2; [1],21.2616
same,relative probability (RP) (acc.to MMP2),MMP-2; [2],21.26
same,relative probability (RP),MMP-9; [3],31.4
same,relative probability (RP) (acc.to MMP9),MMP-9; [4],31.4
ARHYKS,relative probability (RP),MMP-2; [5],10.2998
same,relative probability (RP),MMP-9; [6],23.6532
ASDY,relative probability (RP) (acc.to MMP2),MMP-2; [7],0.78
same,relative probability (RP) (acc.to MMP9),MMP-9; [8],0.38
ATPY,relative probability (RP) (acc.to MMP2),MMP-2; [9],12.49
same,relative probability (RP) of matching tetramer,MMP-2,12.49
same,relative probability (RP) (acc.to MMP2),MMP-2; [2],12.49
same,relative probability (RP) (acc.to MMP9),MMP-9; [10],9.04
same,relative probability (RP),MMP-9; [3],9.04
same,relative probability (RP) (acc.to MMP9),MMP-9; [4],9.04
DGPVSF,relative probability (RP),MMP-2; [5],24.4524
same,relative probability (RP),MMP-9; [6],25.1636
DSPQNL,relative probability (RP),MMP-2; [5],32.7851
same,relative probability (RP),MMP-9; [6],46.8593
EGPAGL,relative probability (RP),MMP-2; [5],36.0156
same,relative probability (RP),MMP-9; [6],47.2274
EMRL,corresponding MMP2 relative probability (RP),"MMP-2; MMP9 tetramers from unique substrates, RP of same tetramer for MMP2",11.559
same,MMP9 relative probability (RP),"MMP-9; MMP9 tetramers from unique substrates, unrounded values",0.2922
EPKPLL,relative probability (RP),MMP-2; [5],33.5622
same,relative probability (RP),MMP-9; [6],48.2599
EPVSLA,relative probability (RP),MMP-2; [5],32.502
same,relative probability (RP),MMP-9; [6],42.3557
ETPRPW,relative probability (RP),MMP-2; [5],32.1109
same,relative probability (RP),MMP-9; [6],41.1124
EVPQAL,relative probability (RP),MMP-2; [5],34.4508
same,relative probability (RP),MMP-9; [6],48.457
FKNI,relative probability (RP) (acc.to MMP2),MMP-2; [7],0.14
same,relative probability (RP) (acc.to MMP9),MMP-9; [8],0.09
FSPL,MMP2 relative probability (RP),MMP-2,14.7799
same,Relative probability (RP) rank,MMP-2; [11],3161
same,relative probability (RP),MMP-2; [11],14.78
same,corresponding MMP9 relative probability (RP),MMP-9,1.083
GEPFEL,relative probability (RP),MMP-2; [5],15.9169
same,relative probability (RP),MMP-9; [6],44.9497
GEPRGQ,relative probability (RP),MMP-2; [5],29.4864
same,relative probability (RP),MMP-9; [6],42.1179
GKPVSM,relative probability (RP),MMP-2; [5],30.0644
same,relative probability (RP),MMP-9; [6],41.2029
GLSL,relative probability (RP) (acc.to MMP2),MMP-2; [7],0.18
same,relative probability (RP) (acc.to MMP9),MMP-9; [8],4.42
GPAGIR,relative probability (RP),MMP-2; [5],33.3207
same,relative probability (RP),MMP-9; [6],45.1083
GPALSY,relative probability (RP),MMP-2; [5],14.6475
same,relative probability (RP),MMP-9; [6],25.6531
GPARPY,relative probability (RP),MMP-2; [5],20.5004
same,relative probability (RP),MMP-9; [6],36.8874
GPEGMK,relative probability (RP),MMP-2; [5],19.9209
same,relative probability (RP),MMP-9; [6],31.8598
GPHGYK,relative probability (RP),MMP-2; [5],24.9359
same,relative probability (RP),MMP-9; [6],44.1642
GPKG,relative probability (RP) (acc.to MMP2),MMP-2; [7],1.49
same,relative probability (RP) (acc.to MMP9),MMP-9; [8],2.81
GPKGFR,relative probability (RP),MMP-2; [5],30.2308
same,relative probability (RP),MMP-9; [6],42.0715
GPRGLK,relative probability (RP),MMP-2; [5],35.2511
same,relative probability (RP),MMP-9; [6],47.3825
GPRYLM,relative probability (RP),MMP-2; [5],30.5447
same,relative probability (RP),MMP-9; [6],44.5304
GQPMNL,relative probability (RP),MMP-2; [5],32.5586
same,relative probability (RP),MMP-9; [6],48.9575
GRGL,avg_RP,"MMP-2; average relative probability of the tetramer, redundant tetramers averaged out",4.9808
same,relative probability (RP) (acc.to MMP2),MMP-2; [9],4.98
same,relative probability (RP) of matching tetramer,MMP-2,4.98
same,relative probability (RP) (acc.to MMP2),MMP-2; [2],4.98
same,relative probability (RP) (acc.to MMP9),MMP-9; [10],11.45
same,relative probability (RP),MMP-9; [3],11.45
same,relative probability (RP) (acc.to MMP9),MMP-9; [4],11.45
GSAL,relative probability (RP) of matching tetramer,MMP-2,9.27
same,relative probability (RP) (acc.to MMP2),MMP-2; [12],9.27
same,normalized RP - MMP2,MMP-2; unique part of MMP2 selectome,0.2538
same,relative probability (RP) (acc.to MMP9),MMP-9; [13],2.8
same,normalized RP - MMP9,MMP-9; unique part of MMP2 selectome,0.05346
GSSY,relative probability (RP) (acc.to MMP2),MMP-2; [7],0.73
same,relative probability (RP) (acc.to MMP9),MMP-9; [8],0.37
HARL,MMP2 relative probability (RP),MMP-2,17.6482
same,Relative probability (RP) rank,MMP-2; [11],2341
same,relative probability (RP),MMP-2; [11],17.65
same,corresponding MMP9 relative probability (RP),MMP-9,0.3259
HFFK,relative probability (RP) (acc.to MMP2),MMP-2; [7],0.14
same,relative probability (RP) (acc.to MMP9),MMP-9; [8],0.27
HPVSMV,relative probability (RP),MMP-2; [5],30.0644
same,relative probability (RP),MMP-9; [6],41.2029
HQKL,relative probability (RP) (acc.to MMP2),MMP-2; [7],2.29
same,relative probability (RP) (acc.to MMP9),MMP-9; [8],0.06
IAFL,relative probability (RP) (acc.to MMP2),MMP-2; [9],22.55
same,relative probability (RP) of matching tetramer,MMP-2,22.55
same,relative probability (RP) (acc.to MMP9),MMP-9; [10],10.97
IANL,avg_RP,MMP-2; [1],33.8805
same,relative probability (RP) (acc.to MMP2),MMP-2; [9],33.88
same,relative probability (RP) of matching tetramer,MMP-2,33.88
same,relative probability (RP) (acc.to MMP2),MMP-2; [2],33.88
same,relative probability (RP) (acc.to MMP9),MMP-9; [10],21.07
same,relative probability (RP),MMP-9; [3],21.07
same,relative probability (RP) (acc.to MMP9),MMP-9; [4],21.07
IDNL,relative probability (RP) of matching tetramer,MMP-2,4.88
same,relative probability (RP) (acc.to MMP2),MMP-2; [12],4.88
same,normalized RP - MMP2,MMP-2; unique part of MMP2 selectome,0.1336
same,relative probability (RP) (acc.to MMP9),MMP-9; [13],0.5
same,normalized RP - MMP9,MMP-9; unique part of MMP2 selectome,0.009546
IGGL [P3-P1' tetramer cluster],relative probability (RP) of matching tetramer,MMP-2,26.48
same,relative probability (RP) (acc.to MMP2),MMP-2; [12],26.48
same,normalized RP - MMP2,MMP-2; unique part of MMP2 selectome,0.7251
same,relative probability (RP) (acc.to MMP9),MMP-9; [13],4.4
same,normalized RP - MMP9,MMP-9; unique part of MMP2 selectome,0.084
same,relative probability (RP),MMP-9; tetramer projected onto MMP-9 cleavage sites determined by Prudova et al. (2010),4.4
IGLM,MMP2 relative probability (RP),MMP-2,19.5116
same,Relative probability (RP) rank,MMP-2; [11],1895
same,relative probability (RP),MMP-2; [11],19.51
same,relative probability (RP) (acc.to MMP2),MMP-2; [7],19.51
same,corresponding MMP9 relative probability (RP),MMP-9,2.913
same,Relative probability (RP) rank,MMP-9; [14],7888
same,relative probability (RP),MMP-9; [14],2.91
same,relative probability (RP) (acc.to MMP9),MMP-9; [8],2.91
IGNM,relative probability (RP) (acc.to MMP2),MMP-2; [9],29.21
same,relative probability (RP) of matching tetramer,MMP-2,29.21
same,relative probability (RP) (acc.to MMP9),MMP-9; [10],9.58
IGRF,MMP2 relative probability (RP),MMP-2,13.8957
same,Relative probability (RP) rank,MMP-2; [11],3460
same,relative probability (RP),MMP-2; [11],13.9
same,corresponding MMP9 relative probability (RP),MMP-9,0.4689
IGTY,relative probability (RP) of matching tetramer,MMP-2,5.18
same,relative probability (RP) (acc.to MMP2),MMP-2; [12],5.18
same,normalized RP - MMP2,MMP-2; unique part of MMP2 selectome,0.1418
same,relative probability (RP) (acc.to MMP9),MMP-9; [13],0.06
same,normalized RP - MMP9,MMP-9; unique part of MMP2 selectome,0.001145
IHSL,relative probability (RP) (acc.to MMP2),MMP-2; [9],6.87
same,relative probability (RP) of matching tetramer,MMP-2,6.87
same,relative probability (RP) (acc.to MMP9),MMP-9; [10],4.86
INPQGL,relative probability (RP),MMP-2; [5],33.5241
same,relative probability (RP),MMP-9; [6],47.8621
IPLASL,relative probability (RP),MMP-2; [5],31.1996
same,relative probability (RP),MMP-9; [6],34.6637
IQSI,relative probability (RP) of matching tetramer,MMP-2,15.56
same,relative probability (RP) (acc.to MMP2),MMP-2; [12],15.56
same,normalized RP - MMP2,MMP-2; unique part of MMP2 selectome,0.4261
same,relative probability (RP) (acc.to MMP9),MMP-9; [13],0.41
same,normalized RP - MMP9,MMP-9; unique part of MMP2 selectome,0.007827
IRPKHF,relative probability (RP),MMP-2; [5],19.1404
same,relative probability (RP),MMP-9; [6],30.1694
ITGL,MMP2 relative probability (RP),MMP-2,4.832
same,Relative probability (RP) rank,MMP-2; [11],7648
same,relative probability (RP),MMP-2; [11],4.83
same,corresponding MMP9 relative probability (RP),MMP-9,0.3587
KPVNMT,relative probability (RP),MMP-2; [5],30.0312
same,relative probability (RP),MMP-9; [6],44.4072
KSEL,MMP2 relative probability (RP),MMP-2,10.4091
same,Relative probability (RP) rank,MMP-2; [11],4754
same,relative probability (RP),MMP-2; [11],10.41
same,corresponding MMP9 relative probability (RP),MMP-9,0.2037
KSPLRQ,relative probability (RP),MMP-2; [5],11.8624
same,relative probability (RP),MMP-9; [6],29.0862
KSPQAM,relative probability (RP),MMP-2; [5],28.5429
same,relative probability (RP),MMP-9; [6],47.1106
